{"source": "patent US20190167750A1", "about": "“NUTRITIONAL SUPPLEMENTS FOR INCREASING MALE TESTOSTERONE LEVELS” (Innovus Pharmaceuticals, Inc., priority 2017, published 2019)", "origin": "cited, not measured here", "key": {"P-glycoprotein": {"molecular_target": "P-glycoprotein (Homo sapiens, UniProt P08183)", "sequence (P08183 whole entry)": "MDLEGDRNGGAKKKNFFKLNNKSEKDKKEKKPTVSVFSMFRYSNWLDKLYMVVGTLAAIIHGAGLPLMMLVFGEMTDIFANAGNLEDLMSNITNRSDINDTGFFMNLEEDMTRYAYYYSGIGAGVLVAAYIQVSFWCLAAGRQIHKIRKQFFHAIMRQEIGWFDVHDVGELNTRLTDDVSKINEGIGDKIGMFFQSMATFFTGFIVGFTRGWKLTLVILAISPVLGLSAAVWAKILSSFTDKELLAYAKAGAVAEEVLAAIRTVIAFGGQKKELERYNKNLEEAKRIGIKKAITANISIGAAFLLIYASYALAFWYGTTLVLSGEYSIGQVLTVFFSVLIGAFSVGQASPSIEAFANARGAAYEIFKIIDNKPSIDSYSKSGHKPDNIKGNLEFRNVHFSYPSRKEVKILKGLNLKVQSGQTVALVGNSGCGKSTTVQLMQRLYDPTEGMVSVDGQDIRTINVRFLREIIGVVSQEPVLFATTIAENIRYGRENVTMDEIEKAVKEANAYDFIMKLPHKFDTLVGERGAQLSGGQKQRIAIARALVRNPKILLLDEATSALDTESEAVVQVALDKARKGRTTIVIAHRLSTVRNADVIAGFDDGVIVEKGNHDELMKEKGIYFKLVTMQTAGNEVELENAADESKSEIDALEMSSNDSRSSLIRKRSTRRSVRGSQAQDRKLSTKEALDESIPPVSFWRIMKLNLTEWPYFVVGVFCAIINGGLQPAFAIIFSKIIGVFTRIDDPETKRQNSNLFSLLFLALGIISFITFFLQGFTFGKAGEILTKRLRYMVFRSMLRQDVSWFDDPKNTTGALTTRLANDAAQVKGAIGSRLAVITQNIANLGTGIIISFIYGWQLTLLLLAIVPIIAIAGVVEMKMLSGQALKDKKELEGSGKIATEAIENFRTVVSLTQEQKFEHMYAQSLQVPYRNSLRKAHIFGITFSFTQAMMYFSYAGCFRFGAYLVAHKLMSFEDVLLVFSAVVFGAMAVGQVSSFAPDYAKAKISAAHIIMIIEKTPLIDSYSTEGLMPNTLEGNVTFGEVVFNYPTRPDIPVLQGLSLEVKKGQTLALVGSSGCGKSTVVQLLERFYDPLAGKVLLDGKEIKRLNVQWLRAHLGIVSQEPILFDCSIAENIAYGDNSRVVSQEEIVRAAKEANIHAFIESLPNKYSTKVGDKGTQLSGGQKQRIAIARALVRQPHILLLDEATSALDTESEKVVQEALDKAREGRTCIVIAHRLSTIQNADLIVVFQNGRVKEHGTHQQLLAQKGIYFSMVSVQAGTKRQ"}, "human CYP3A4": {"molecular_target": "human CYP3A4 (Homo sapiens, UniProt P08684)", "sequence (P08684 whole entry)": "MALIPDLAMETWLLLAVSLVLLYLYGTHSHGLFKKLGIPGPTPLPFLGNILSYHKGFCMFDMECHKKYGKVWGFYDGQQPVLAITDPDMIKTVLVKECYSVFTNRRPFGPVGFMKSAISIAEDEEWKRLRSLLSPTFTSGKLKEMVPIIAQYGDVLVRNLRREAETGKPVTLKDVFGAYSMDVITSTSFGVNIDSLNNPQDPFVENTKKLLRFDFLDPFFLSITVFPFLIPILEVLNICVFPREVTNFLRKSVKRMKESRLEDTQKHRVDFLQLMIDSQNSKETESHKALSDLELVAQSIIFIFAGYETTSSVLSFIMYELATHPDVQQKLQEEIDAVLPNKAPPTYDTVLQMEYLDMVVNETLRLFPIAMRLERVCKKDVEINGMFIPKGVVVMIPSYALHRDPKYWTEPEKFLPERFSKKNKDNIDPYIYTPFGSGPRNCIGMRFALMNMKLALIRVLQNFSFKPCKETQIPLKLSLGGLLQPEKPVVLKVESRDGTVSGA"}}, "data": [{"smiles": "O=C(/C=C/C=C/c1ccc2c(c1)OCO2)N1CCCCC1", "note": "[Bioperine, (2E,4E)-5-(1,3-benzodioxol-5-yl)-1-(piperidin-1-yl)penta-2,4-dien-1-one]", "values": [{"measurement": "inhibition of P-glycoprotein", "setting": "P-glycoprotein", "result": "inhibits"}, {"measurement": "inhibition of human CYP3A4", "setting": "human CYP3A4", "result": "inhibits"}]}]}
